Assay results taken from ChEMBL document CHEMBL3351890, “Azapropellanes with anti-influenza a virus activity” (ACS Med Chem Lett, 2014).
Active and inactive are the calls of the source. The calls are words filed in the database; no cut-off is given here.

Key:
[1] = system: Matrix protein 2 (Influenza A virus), P06821 [V27A]; assay: Inhibition of influenza A virus wild type M2 proton channel V27A mutant expressed in Xenopus oocytes at 100 uM by two-electrode voltage clamp analysis; format: cell-based
[2] = system: Matrix protein 2 (Influenza A virus), P06821 [withheld]; assay: Inhibition of influenza A virus wild type M2 proton channel S31N mutant expressed in Xenopus oocytes at 100 uM by two-electrode voltage clamp analysis; format: cell-based

Structure (SMILES)	inhibition [1]	inhibition [2]
C1=CC[C@]23CCCC[C@@]2(C1)CNC3	inactive	inactive
C1CC23CCCC2(C1)CNC3 (centres undefined)	inactive	inactive
C=C1CC23CC=CCC2(CNC3)C1 (centres undefined)	inactive	inactive
C=C1CC23CCCC2(CNC3)C1 (centres undefined)	inactive	inactive
CC1CC23CNCC2(C1)CC(C)C3 (centres undefined)	inactive	inactive
CC1CC23CC(C)CC2(C1)CN(C(=N)N)C3 (centres undefined)	inactive	inactive
C=C1CC23CNCC2(C1)CC(=C)C3 (centres undefined)	inactive	inactive
